# According to patent publication US12274684B2, “Treatment of vasculopathy with prostacyclin and mesenchymal stem cells” (United Therapeutics Corporation, priority 2013, dated 2025):
# Where “and” joins values, the source holds several entries; their conditions need not be identical. Equal values may be shown once.
# Test system: human bone marrow MSC
# Test: Microarray gene expression analysis of MSC (Illumina Human HT12 Expression BeadChip)
# Type: cell-based
# Settings: Tre(+) 250 μg/mL, 24 h
# Description: Human bone marrow MSC were expanded and seeded into six (6) T225 flasks using standard growth medium (Table 1). At 95-99% confluency, cells were thoroughly washed with PBS. Three (3) flasks were replenished with basal media containing 250 μg/mL treprostinil, (+)Tre, and the remaining three (3) flasks were replenished with unsupplemented basal media, (−)Tre. After 24 hours of culture, representative images were captured from (+) Tre and (−) Tre cultures. Conditioned media was collected from each replicate, divided into two samples of appropriate volumes, and analyzed separately for: 1) secreted proteins (Myriad RBM InflammationMAP® 1.0) and 2) exosome RNA content. Cells were lysed directly from culture flasks, processed for total RNA isolation, and analyzed for gene expression by microarray (Illumina Human HT12 Expression BeadChip). Microarray gene expression analysis was also performed on MSC from cultures without (−) or with (+) 250 ug/mL treprostinil. Three (3) biological replicates from each condition were analyzed. Of the 77,612 sequences identified among all replicates, only 24,273 were detected above the arbitrary background of 50 counts. 2,984 RNA sequences were unique to Tre(−) cultures, while 1,781 RNA sequences were unique to Tre(+) cultures (panel A). Genes detected in both conditions were further analyzed for differential expression (panel). […] Genes that are expressed only in Tre(−) cultures (that is to say, completely turned off in the Tre(+) cultures) are shown in Table 5.
structure (smiles),measurement,value
CCCCC[C@H](O)CC[C@@H]1[C@H]2Cc3cccc(OCC(=O)O)c3C[C@H]2C[C@H]1O [treprostinil],"ASPM (NM_018136) expression, Rep 1-3",20 counts and 27 counts and 30 counts
same,"ATF3 (NM_001030287) expression, Rep 1-3",1001 counts and 1579 counts and 1041 counts
same,"ATP6V0D2 (NM_152565) expression, Rep 1-3",547 counts and 893 counts and 499 counts
same,"BMP6 (NM_001718) expression, Rep 1-3",1210 counts and 1581 counts and 1181 counts
same,"C11orf96 (NM_001145033) expression, Rep 1-3",2050 counts and 2381 counts and 1885 counts
same,"C13orf33 (NM_032849) expression, Rep 1-3",17304 counts and 24329 counts and 16255 counts
same,"CALD1 (NM_033140) expression, Rep 1-3",0 counts
same,"CD55 (NM_000574) expression, Rep 1-3",7472 counts and 9108 counts and 6555 counts
same,"CD55 (NM_001114752) expression, Rep 1-3",2497 counts and 3119 counts and 2372 counts
same,"COL6A3 (NM_004369) expression, Rep 1-3",5033 counts and 4570 counts and 4303 counts
same,"CPA4 (NM_016352) expression, Rep 1-3",51 counts and 62 counts and 45 counts
same,"CXCL12 (NM_199168) expression, Rep 1-3",853 counts and 627 counts and 534 counts
same,"DDAH1 (NM_001134445) expression, Rep 1-3",136 counts and 155 counts and 107 counts
same,"DKFZp547J0510 (CDNA FLJ42650 fis, clone BRACE3027478) expression, Rep 1-3",183 counts and 135 counts and 125 counts
same,"DUSP1 (NM_004417) expression, Rep 1-3",825 counts and 1489 counts and 963 counts
same,"FAM84A (NM_145175) expression, Rep 1-3",63 counts and 40 counts and 32 counts
same,"GDF5 (NM_000557) expression, Rep 1-3",83 counts and 64 counts and 65 counts
same,"GDF15 (NM_004864) expression, Rep 1-3",11450 counts and 18978 counts and 10088 counts
same,"GDNF (NM_000514) expression, Rep 1-3",689 counts and 845 counts and 824 counts
same,"GPRC5A (NM_003979) expression, Rep 1-3",4151 counts and 5981 counts and 3920 counts
same,"HAS1 (NM_001523) expression, Rep 1-3, second entry",1355 counts and 730 counts and 789 counts
same,"HSD11B1 (NM_005525) expression, Rep 1-3",822 counts and 966 counts and 758 counts
same,"IDH1 (NM_005896) expression, Rep 1-3",1920 counts and 2406 counts and 1792 counts
same,"IER3 (NM_003897) expression, Rep 1-3",2769 counts and 3595 counts and 2558 counts
same,"IGFBP1 (NM_000596) expression, Rep 1-3",5468 counts and 8123 counts and 5321 counts
same,"IL6 (NM_000600) expression, Rep 1-3",6490 counts and 8445 counts and 5640 counts
same,"IL11 (NM_000641) expression, Rep 1-3",851 counts and 1237 counts and 700 counts
same,"ISLR (NM_005545) expression, Rep 1-3",612 counts and 543 counts and 490 counts
same,"KTN1 (NM_001079522) expression, Rep 1-3",531 counts and 612 counts and 596 counts
same,"KYNU (NM_003937) expression, Rep 1-3",867 counts and 922 counts and 797 counts
same,"LIPG (NM_006033) expression, Rep 1-3",1552 counts and 1946 counts and 1607 counts
same,"MEST (NM_177525) expression, Rep 1-3",367 counts and 268 counts and 258 counts
same,"METTL7A (NM_014033) expression, Rep 1-3",146 counts and 95 counts and 85 counts
same,"MYLK (NM_053025) expression, Rep 1-3",0 counts
same,"NAP1L3 (NM_004538) expression, Rep 1-3",68 counts and 35 counts and 42 counts
same,"NGFR (NM_002507) expression, Rep 1-3",1217 counts and 1818 counts and 1074 counts
same,"NR4A2 (NM_006186) expression, Rep 1-3",635 counts and 810 counts and 592 counts
same,"OLFML1 (NM_198474) expression, Rep 1-3 (Table 4)",177 counts and 128 counts and 114 counts
same,"PALLD (NM_001166110) expression, Rep 1-3",1158 counts and 885 counts and 1055 counts
same,"PAQR5 (NM_017705) expression, Rep 1-3",703 counts and 745 counts and 664 counts
same,"PDE4B (NM_001037339) expression, Rep 1-3",1160 counts and 1371 counts and 1056 counts
same,"PDE4D (NM_001197221) expression, Rep 1-3",1130 counts and 1170 counts and 1071 counts
same,"PDE4D (NM_001197222) expression, Rep 1-3",1417 counts and 2044 counts and 1570 counts
same,"PDE5A (NM_033430) expression, Rep 1-3",174 counts and 286 counts and 206 counts
same,"PDK4 (NM_002612) expression, Rep 1-3",1296 counts and 1726 counts and 1173 counts
same,"PITPNC1 (NM_181671) expression, Rep 1-3",702 counts and 1007 counts and 764 counts
same,"PLIN2 (NM_001122) expression, Rep 1-3",82301 counts and 124225 counts and 72254 counts
same,"PLOD2 (NM_000935) expression, Rep 1-3",1169 counts and 1679 counts and 925 counts
same,"PRELP (NM_002725) expression, Rep 1-3",159 counts and 104 counts and 80 counts
same,"PRKAG2 (NM_024429) expression, Rep 1-3",7233 counts and 8152 counts and 6080 counts
same,"PTP4A1 (NM_003463) expression, Rep 1-3",849 counts and 696 counts and 510 counts
same,"RCAN1 (NM_203418) expression, Rep 1-3",7766 counts and 11997 counts and 6962 counts
same,"RCAN2 (NM_001251974) expression, Rep 1-3",129 counts and 109 counts and 76 counts
same,"RND3 (NM_005168) expression, Rep 1-3",48372 counts and 65016 counts and 41881 counts
same,"S100A4 (NM_002961) expression, Rep 1-3",149 counts and 114 counts and 113 counts
same,"SAT1 (transcript variant 2, non-coding RNA) expression, Rep 1-3",1141 counts and 1529 counts and 954 counts
same,"SCG2 (NM_003469) expression, Rep 1-3",1014 counts and 1187 counts and 1069 counts
same,"SEC31A (NM_001077207) expression, Rep 1-3",737 counts and 887 counts and 573 counts
same,"SIK1 (NM_173354) expression, Rep 1-3",1144 counts and 1320 counts and 1086 counts
same,"SLC2A12 (NM_145176) expression, Rep 1-3",110 counts and 114 counts and 92 counts
same,"SLC3A2 (NM_001013251) expression, Rep 1-3",31831 counts and 39703 counts and 29042 counts
same,"SLC6A15 (NM_182767) expression, Rep 1-3",1201 counts and 1568 counts and 1062 counts
